Measured values from publication PMC3226499, “Environmental Impact on Vascular Development Predicted by High-Throughput Screening” (Environmental Health Perspectives, 2011).
Like-named read-outs stand apart in the source and are kept apart here. Blank lines part the entries; values can stand above or below the compound they belong to.

Assays:
rat [1] = conditions: cited from earlier work
[2] = tested on: six prioritized vascular targets (VEGFR2, TIE2, CCL2, PAI-1, CXCL10, uPAR); assay: Vascular bioactivity score (VBS): weighted sum of activity across 23 ToxCast assays; parameters: species or system human; conditions: for predicted vascular disruption from VBS rank: among all 311 compounds tested
PTEN = PTEN (Homo sapiens, UniProt P60484); assay: PTEN biochemical assay; conditions: read-out: PTEN AC50
EphB2 = target: T1, EphB2 (Homo sapiens, UniProt P29323); assay: EphB2 biochemical assay; conditions: read-out: EphB2 AC50
T1 sequence (P29323 569-986 isoform P29323-2 limits assumed): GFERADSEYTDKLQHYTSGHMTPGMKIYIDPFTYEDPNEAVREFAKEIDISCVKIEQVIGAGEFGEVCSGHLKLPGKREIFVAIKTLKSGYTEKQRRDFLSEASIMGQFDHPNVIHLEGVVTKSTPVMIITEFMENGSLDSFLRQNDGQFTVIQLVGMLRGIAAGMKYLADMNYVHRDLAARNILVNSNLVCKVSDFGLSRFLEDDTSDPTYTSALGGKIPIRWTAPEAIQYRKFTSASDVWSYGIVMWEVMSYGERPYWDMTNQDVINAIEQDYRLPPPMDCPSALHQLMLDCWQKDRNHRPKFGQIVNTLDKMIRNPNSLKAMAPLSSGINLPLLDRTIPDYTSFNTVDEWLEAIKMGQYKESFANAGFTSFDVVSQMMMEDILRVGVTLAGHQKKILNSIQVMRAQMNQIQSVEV

PI3Ka = PI3Ka (Homo sapiens, UniProt P42336); assay: PI3Ka biochemical assay
VEGFR1 = VEGFR1 (Homo sapiens, UniProt P17948); assay: VEGFR1 biochemical assay; conditions: read-out: VEGFR1 AC50
Source text: (§5) The chemical library was run against these assays, as was a repeat of the TIE2 assay from the original data series (Table 2).

VEGFR2 [3] = target: VEGFR2 (Homo sapiens, UniProt P35968); assay: VEGFR2 biochemical assay; conditions: read-out: VEGFR2 AC50; biochemical
VEGFR3 = VEGFR3 (Homo sapiens, UniProt P35916); assay: VEGFR3 biochemical assay; conditions: read-out: VEGFR3 AC50
TIE2 = TIE2 (Homo sapiens, UniProt Q02763); assay: TIE2 cell-free biochemical assay
Source text: as §5

various species = conditions: cited from earlier work
CCL2 = assay: BioMAP protein readout: CCL2 down-regulation; format: cell-based, human
Source text: (§1) Source data. […] Assays measured direct interactions between chemicals and molecular targets (receptors, enzymes), as well as downstream effects on reporter gene activity or cellular consequences. […] The perturbation scores are a method of aggregating assays into groups and providing a higher-level view of chemical activity across important signaling pathways.
(§2) Identifying pVDCs. Six assay targets emerged as most relevant to embryonic blood vessel formation based on biological plausibility and prevalence in the VasculoDB literature. These targets have been previously identified, based on murine knockout models or significant associations between biomarker data and adverse pregnancy effects, as critical to proper embryonic blood vessel formation or maternal–fetal placental circulation. In order of descending influence (with corresponding references highlighting their importance to vascular development), these were down-regulation of the receptor tyrosine kinase (RTK) VEGFR2 ([Drake et al. 2007]); inhibition of the enzymatic activity of TIE2, an angiogenic RTK ([Patan 1998]); down-regulation of the proangiogenic chemokine CCL2 ([Keeley et al. 2008]); perturbation of the plasminogen-activating system (PAS) controlling extracellular matrix breakdown via up- or down-regulation of plasminogen activator inhibitor type 1 (PAI-1/SERPINE1) ([Behzadian et al. 2003]); up-regulation of the proinflammatory antiangiogenic chemokine CXCL10 ([Romagnani et al. 2001]); and perturbation of the PAS via up- or down-regulation of urokinase-type plasminogen activator receptor (uPAR/PLAUR) ([D’Alessio and Blasi 2009]).
(§3) As predicted, thalidomide and 5HPP-33 were active across most of the pVDC signature assay targets. […] 5HPP-33 also had effects on uPAR in the endothelial cell system at 10 µM. […] Both compounds, however, fell above the mean VBS cutoff and would be classified as pVDCs based on in vitro activity for vascular targets identified by the ToxCast data and chemicals. […] Thus, our findings with reference compounds known to be antiangiogenic support the contention that VBS is an effective metric for vascular disruption.

CXCL10 = assay: BioMAP protein readout: CXCL10 up-regulation; format: cell-based, human
Source text: as §1
(§4) Identifying pVDCs. Six assay targets emerged as most relevant to embryonic blood vessel formation based on biological plausibility and prevalence in the VasculoDB literature. These targets have been previously identified, based on murine knockout models or significant associations between biomarker data and adverse pregnancy effects, as critical to proper embryonic blood vessel formation or maternal–fetal placental circulation. […]

uPAR = assay: BioMAP protein readout: uPAR up- and down-regulation; format: cell-based, human; conditions: for uPAR up- and down-regulation LEC: lowest effective concentration
Source text: as §1, §2, §3

PAI-1 = assay: BioMAP protein readout: PAI-1 up- and down-regulation; format: cell-based, human; conditions: for PAI-1 up- and down-regulation LEC: lowest effective concentration
Source text: as §1, §2, §3

VEGFR2 [4] = assay: BioMAP protein readout: VEGFR2 down-regulation; format: cell-based, human; conditions: lowest effective concentration
Source text: as §1, §4

[5] = tested on: human umbilical vein endothelial cell; parameters: method as in Noguchi et al. 2005; conditions: ref Noguchi et al. 2005; cited from earlier work
[6] = tested on: placental vascular remodeling; conditions: rats; correlated with decreased expression of TIE2 mRNA; ref Ishimura et al. 2009; cited from earlier work
rat/rabbit = conditions: in vivo; cited from earlier work
rat [7] = conditions: in vivo; cited from earlier work
mouse = conditions: cited from earlier work
[8] = tested on: VEGF expression and VEGFR2 phosphorylation; parameters: method as in Joussen et al. 2001; Satchi-Fainaro et al. 2005; conditions: ocular vasculature; ref Joussen et al. 2001; Satchi-Fainaro et al. 2005; cited from earlier work
murine pregnancy = conditions: administered early or late in murine pregnancy, respectively; ref Rutland et al. 2005; cited from earlier work
[9] = ToxRefDB end points, ref U.S. EPA 2010b
[10] = read-out: TIE2 AC50, repeat of the TIE2 assay from the original data series
[11] = species and reference printed with each result
[12] = summed activity across 23 assays, 6 assay targets, reference antiangiogenic compounds
[13] = coculture of peripheral blood mononuclear cells and endothelial cells

Chain of VEGFR2 (Homo sapiens, UniProt P35968) (P35968 20-1356, species assumed): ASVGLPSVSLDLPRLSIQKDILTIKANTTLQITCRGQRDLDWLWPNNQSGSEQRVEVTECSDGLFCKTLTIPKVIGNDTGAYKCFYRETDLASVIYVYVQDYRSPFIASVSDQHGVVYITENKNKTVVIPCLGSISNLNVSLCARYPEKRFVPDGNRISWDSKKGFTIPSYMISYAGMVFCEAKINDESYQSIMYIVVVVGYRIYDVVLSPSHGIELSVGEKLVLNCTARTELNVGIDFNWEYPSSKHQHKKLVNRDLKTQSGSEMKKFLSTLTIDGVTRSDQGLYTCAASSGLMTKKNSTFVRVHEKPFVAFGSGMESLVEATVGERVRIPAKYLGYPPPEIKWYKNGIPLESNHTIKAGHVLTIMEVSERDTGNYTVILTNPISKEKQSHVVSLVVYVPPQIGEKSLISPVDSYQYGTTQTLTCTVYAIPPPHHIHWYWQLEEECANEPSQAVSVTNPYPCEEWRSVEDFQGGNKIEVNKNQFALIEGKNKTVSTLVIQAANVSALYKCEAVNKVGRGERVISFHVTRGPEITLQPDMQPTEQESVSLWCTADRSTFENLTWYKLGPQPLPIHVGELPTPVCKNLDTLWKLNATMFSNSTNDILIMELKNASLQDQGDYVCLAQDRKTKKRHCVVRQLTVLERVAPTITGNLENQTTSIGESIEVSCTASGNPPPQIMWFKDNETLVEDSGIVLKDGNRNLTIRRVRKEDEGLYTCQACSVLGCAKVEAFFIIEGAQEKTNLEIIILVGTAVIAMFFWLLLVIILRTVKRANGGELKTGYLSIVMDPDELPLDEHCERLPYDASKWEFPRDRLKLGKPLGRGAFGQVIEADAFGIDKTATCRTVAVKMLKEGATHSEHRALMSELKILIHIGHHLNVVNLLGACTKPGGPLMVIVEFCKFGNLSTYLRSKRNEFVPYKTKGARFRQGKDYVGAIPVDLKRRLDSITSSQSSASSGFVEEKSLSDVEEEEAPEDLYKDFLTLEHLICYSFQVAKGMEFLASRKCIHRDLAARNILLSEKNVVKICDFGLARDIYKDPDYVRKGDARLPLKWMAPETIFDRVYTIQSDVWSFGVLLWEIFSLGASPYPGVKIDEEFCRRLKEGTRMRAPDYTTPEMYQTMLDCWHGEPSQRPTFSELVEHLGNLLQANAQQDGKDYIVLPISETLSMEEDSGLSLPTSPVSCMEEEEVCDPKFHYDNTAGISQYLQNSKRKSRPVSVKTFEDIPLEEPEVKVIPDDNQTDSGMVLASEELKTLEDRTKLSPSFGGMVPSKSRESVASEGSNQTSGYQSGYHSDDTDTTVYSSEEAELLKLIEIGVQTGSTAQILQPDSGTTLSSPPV
Chain of VEGFR3 (P35916 25-1363, species assumed): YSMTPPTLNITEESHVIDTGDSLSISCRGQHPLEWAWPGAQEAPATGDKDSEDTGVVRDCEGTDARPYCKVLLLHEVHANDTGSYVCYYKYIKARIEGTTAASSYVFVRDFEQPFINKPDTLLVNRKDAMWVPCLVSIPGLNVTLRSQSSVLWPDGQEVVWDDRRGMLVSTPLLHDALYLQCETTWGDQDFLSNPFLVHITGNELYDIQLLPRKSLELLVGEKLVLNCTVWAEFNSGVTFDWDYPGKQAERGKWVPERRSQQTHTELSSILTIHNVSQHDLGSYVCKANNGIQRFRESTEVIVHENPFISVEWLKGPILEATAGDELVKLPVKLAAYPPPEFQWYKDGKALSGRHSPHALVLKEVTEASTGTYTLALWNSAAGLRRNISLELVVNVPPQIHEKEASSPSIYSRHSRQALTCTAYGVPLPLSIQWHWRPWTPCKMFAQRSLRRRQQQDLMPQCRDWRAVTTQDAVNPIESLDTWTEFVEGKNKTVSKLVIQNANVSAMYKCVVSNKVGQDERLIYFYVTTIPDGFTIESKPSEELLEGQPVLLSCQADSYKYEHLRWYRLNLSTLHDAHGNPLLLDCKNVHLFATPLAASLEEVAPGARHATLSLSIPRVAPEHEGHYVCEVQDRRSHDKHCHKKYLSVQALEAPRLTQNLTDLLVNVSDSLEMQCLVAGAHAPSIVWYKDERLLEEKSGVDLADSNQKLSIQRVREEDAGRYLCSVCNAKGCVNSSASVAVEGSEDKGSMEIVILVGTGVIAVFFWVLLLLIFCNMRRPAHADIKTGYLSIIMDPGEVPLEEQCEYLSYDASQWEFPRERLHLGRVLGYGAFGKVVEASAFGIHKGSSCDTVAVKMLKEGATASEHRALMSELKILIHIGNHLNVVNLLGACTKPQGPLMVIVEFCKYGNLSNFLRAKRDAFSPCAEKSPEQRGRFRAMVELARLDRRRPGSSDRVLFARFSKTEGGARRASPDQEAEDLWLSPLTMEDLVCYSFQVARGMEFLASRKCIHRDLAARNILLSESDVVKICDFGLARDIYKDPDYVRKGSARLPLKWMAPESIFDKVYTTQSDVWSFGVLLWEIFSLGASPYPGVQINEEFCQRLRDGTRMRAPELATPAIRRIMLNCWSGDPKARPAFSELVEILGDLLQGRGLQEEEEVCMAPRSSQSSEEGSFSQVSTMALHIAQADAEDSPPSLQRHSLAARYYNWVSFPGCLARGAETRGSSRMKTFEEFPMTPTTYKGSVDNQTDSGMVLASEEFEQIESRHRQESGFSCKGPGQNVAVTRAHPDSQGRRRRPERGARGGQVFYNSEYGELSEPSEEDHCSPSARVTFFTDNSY
Chain of TIE2 (Q02763 23-1124, species assumed): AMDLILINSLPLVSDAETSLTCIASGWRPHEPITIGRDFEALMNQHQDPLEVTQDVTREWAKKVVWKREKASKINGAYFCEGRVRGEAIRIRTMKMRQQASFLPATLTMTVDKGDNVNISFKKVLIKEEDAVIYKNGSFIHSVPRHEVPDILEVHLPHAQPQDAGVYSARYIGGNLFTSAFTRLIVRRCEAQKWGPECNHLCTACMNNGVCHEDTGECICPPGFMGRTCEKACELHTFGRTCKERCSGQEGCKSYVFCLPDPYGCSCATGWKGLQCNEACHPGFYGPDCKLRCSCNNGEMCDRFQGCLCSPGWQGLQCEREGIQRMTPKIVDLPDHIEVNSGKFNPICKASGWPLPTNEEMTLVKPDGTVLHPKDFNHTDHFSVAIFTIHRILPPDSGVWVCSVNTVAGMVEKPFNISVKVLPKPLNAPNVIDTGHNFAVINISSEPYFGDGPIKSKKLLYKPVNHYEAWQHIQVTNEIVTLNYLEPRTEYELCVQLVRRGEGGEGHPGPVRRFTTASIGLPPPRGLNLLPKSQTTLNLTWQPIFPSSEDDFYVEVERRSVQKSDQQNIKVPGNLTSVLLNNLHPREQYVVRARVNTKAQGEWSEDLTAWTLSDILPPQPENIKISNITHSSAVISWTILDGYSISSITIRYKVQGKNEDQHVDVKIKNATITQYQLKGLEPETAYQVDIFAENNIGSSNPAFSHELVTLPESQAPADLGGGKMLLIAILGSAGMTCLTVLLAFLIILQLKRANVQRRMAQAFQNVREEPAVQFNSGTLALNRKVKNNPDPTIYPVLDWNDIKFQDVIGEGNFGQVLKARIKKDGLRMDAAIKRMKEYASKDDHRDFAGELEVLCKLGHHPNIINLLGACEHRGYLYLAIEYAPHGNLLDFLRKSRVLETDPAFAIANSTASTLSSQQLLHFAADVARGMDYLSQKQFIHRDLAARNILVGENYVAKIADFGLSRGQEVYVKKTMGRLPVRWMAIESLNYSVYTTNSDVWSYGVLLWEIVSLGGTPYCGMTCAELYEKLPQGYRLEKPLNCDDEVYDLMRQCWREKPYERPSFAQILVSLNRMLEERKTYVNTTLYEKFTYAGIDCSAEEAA
Chain of PTEN (P60484 whole entry, species assumed): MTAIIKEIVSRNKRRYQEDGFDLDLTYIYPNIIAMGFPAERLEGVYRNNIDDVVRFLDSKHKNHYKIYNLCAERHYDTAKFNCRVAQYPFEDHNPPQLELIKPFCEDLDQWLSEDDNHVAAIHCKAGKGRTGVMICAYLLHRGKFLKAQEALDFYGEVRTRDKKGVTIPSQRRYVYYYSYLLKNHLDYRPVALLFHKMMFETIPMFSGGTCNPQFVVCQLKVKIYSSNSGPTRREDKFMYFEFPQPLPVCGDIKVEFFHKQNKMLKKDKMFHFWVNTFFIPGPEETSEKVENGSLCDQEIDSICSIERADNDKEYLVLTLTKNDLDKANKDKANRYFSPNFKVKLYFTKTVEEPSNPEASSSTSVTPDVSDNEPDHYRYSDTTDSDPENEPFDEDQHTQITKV

Compound: CC(C)N1C(=O)c2ccccc2NS1(=O)=O [Bentazone]
- RAT Multigenerational (rat [1]; [9]): Kidney; Liver

Compound: Mancozeb
- VBS ([2]; ToxCast chemicals of Table 2): 3.00
- AC50 (PTEN): 0.23 µM
- AC50 (EphB2): 21 µM
- PI3Ka AC50 (PI3Ka): 20 µM
- AC50 (VEGFR1): 19 µM
- AC50 (VEGFR2 [3]): 5.9 µM
- AC50 (VEGFR3): 1.3 µM
- AC50 (TIE2; [10]): 10.4 µM

Compound: O=C(O)C(F)(F)C(F)(F)C(F)(F)C(F)(F)C(F)(F)C(F)(F)C(F)(F)F [Perfluorooctanoic acid]
- VBS ([2]; ToxCast chemicals of Table 2): 3.04
- VTKB Results (peer-reviewed in vivo studies) (various species; [11]): mammalian developmental toxicity
- AC50 (TIE2): 31.9 µM

- AC50 (TIE2): > 50 µM
Compound: CC(C)c1cccc(C(C)C)c1N1C(=O)c2ccc(O)cc2C1=O [5HPP-33, 5-hydroxy-2-(2,6-diisopropylphenyl)-1H-isoindole-1,3-dione]
- predicted vascular disruption from VBS rank [2]: second highest VBS
- VBS [2, 12]: 6.61
- CCL2 down-regulation LEC (CCL2; [13]): 0.625 µM
- CCL2 down-regulation LEC (CCL2; lowest effective concentration): 0.625 µM
- effect on CXCL10 signal assay (CXCL10): Neither compound affected
- uPAR up-regulation, effective concentration (uPAR; bronchial epithelial cells): 1.25 µM
- effects on uPAR, effective concentration (uPAR; endothelial cell system): 10 µM
- uPAR up- and down-regulation LEC (uPAR): 1.25 µM
- PAI-1 down-regulation LEC (PAI-1; both fibroblasts and bronchial epithelial cells): 20 µM
- PAI-1 up- and down-regulation LEC (PAI-1): 20 µM
- VEGFR2 down-regulation LEC (VEGFR2 [4]): 20 µM
- inhibition of tube formation [5]: ~ 60%
- AC50 in the TIE2 assay (in words) (TIE2): Neither compound affected the CXCL10 signal assay or produced an AC50 in the TIE2 assay

Compound: O=S(=O)(O)C(F)(F)C(F)(F)C(F)(F)C(F)(F)C(F)(F)C(F)(F)C(F)(F)C(F)(F)F [Perfluorooctanesulfonic acid]
- VBS ([2]; ToxCast chemicals of Table 2): 3.48
- AC50 (PTEN): 17 µM
- PI3Ka AC50 (PI3Ka): 6.5 µM
- AC50 (VEGFR1): 8.2 µM
- AC50 (VEGFR2 [3]): 50 µM
- AC50 (VEGFR3): 8 µM
- AC50 (TIE2; [10]): 4.43 µM

Compound: Clc1cc2c(cc1Cl)Oc1cc(Cl)c(Cl)cc1O2 [TCDD, 2,3,7,8-tetrachlorodibenzo-p-dioxin]
- placental vascular remodeling [6]: suppressed

Compound: CCC(C)(NC(=O)c1cc(Cl)c(C)c(Cl)c1)C(=O)CCl (stereo not shown) [Zoxamide]
- RAT/RABBIT Developmental (rat/rabbit): No effe ct recorded
- RAT Chronic (rat [7]): No effe ct re corded
- MOUSE Chronic (mouse; mouse, in vivo): LungTumors; Lung_ AnyLesion, PreneoplasticL esion, Neoplasti cLesion; Tumorigen
- RAT Multigenerational (rat [1]; rat, in vivo): No effe ct recorded

Compound: CCc1ccc(C(=O)NN(C(=O)c2cc(C)cc(C)c2)C(C)(C)C)cc1 [Tebufenozide]
- MOUSE Chronic (mouse; [9]): Spleen_ AnyLesion

Compound: CO[C@@H]1[C@H](OC(=O)NC(=O)CCl)CC[C@]2(CO2)[C@H]1[C@@]1(C)O[C@@H]1CC=C(C)C [TNP-470, O-[chloroacetyl-carbamoyl]fumagillol]
- effect on VEGF expression and VEGFR2 phosphorylation [8]: significant decrease
- pregnancy outcome (murine pregnancy): spontaneous resorption and intrauterine growth restriction

Compound: Metiram-zinc
- VBS ([2]; ToxCast chemicals of Table 2): 4.35
- AC50 (PTEN): 12 µM
- PI3Ka AC50 (PI3Ka): 29 µM
- AC50 (VEGFR1): 6.6 µM
- AC50 (VEGFR2 [3]): 41 µM
- AC50 (VEGFR3): 22 µM
- AC50 (TIE2; [10]): 15 µM

Compound: C=CCOC(Cn1ccnc1)c1ccc(Cl)cc1Cl (stereo not shown) [Imazalil]
- VTKB Results (peer-reviewed in vivo studies) (various species; [11]): mammalian developmental toxicity

- AC50 (TIE2): > 50 µM
Compound: O=C1CCC(N2C(=O)c3ccccc3C2=O)C(=O)N1 (stereo not shown) [Thalidomide]
- predicted vascular disruption from VBS rank [2]: moderate vascular disruptor
- VBS [2, 12]: 1.76
- CCL2 down-regulation LEC (CCL2; [13]): 0.625 µM
- CCL2 down-regulation LEC (CCL2; lowest effective concentration): 0.625 µM
- effect on CXCL10 signal assay (CXCL10): Neither compound affected
- uPAR up-regulation, effective concentration (uPAR; endothelial cells): 2.5 µM
- uPAR up- and down-regulation LEC (uPAR): 2.5 µM
- PAI-1 up-regulation, effective concentration (PAI-1; fibroblasts): 40 µM
- PAI-1 up- and down-regulation LEC (PAI-1): 40 µM
- inhibition of tube formation [5]: ~ 30%
- AC50 in the TIE2 assay (in words) (TIE2): Neither compound affected the CXCL10 signal assay or produced an AC50 in the TIE2 assay

Compound: N#Cc1nn(-c2c(Cl)cc(C(F)(F)F)cc2Cl)c(N)c1[S+]([O-])C(F)(F)F (stereo not shown) [Fipronil]
- RAT/RABBIT Developmental (rat/rabbit): No effe ct recorded
- RAT Chronic (rat [7]): KidneyNephropath y; Kidney_ AnyLesion; ThyroidGland_ AnyLesion, PreneoplasticL esion, Neoplasti cLesion; ThyroidProliferativeLesions; ThyroidTumors; Tumorigen
- MOUSE Chronic (mouse; mouse, in vivo): LiverHypertrophy; LiverNec rosis; LiverProli ferativeLes ions; Liver_ AnyLes ion, PreneoplasticL esion
- RAT Multigenerational (rat [1]; rat, in vivo): Epididymis; Fertili ty; LitterSize; LiveBir thPND1; Liver; Mating; Ovary; Thyroid; ViabilityPND4
- VTKB Results (peer-reviewed in vivo studies) (various species; in vivo): Developmental Neurotoxi city: Zebrafish (Stehr e t al. 2006)

Compound: S=C([S-])NCCNC(=S)[S-].[Mn+2] [Maneb]
- VBS ([2]; ToxCast chemicals of Table 2): 4.69
- AC50 (PTEN): 0.9 µM
- AC50 (EphB2): 23 µM
- AC50 (VEGFR1): 4.1 µM
- AC50 (VEGFR2 [3]): 31 µM
- AC50 (VEGFR3): 12 µM
- AC50 (TIE2; [10]): 8.08 µM
